According to patent US11939398B2, “Modified peptides for use in treating neurodegenerative disorders” (Neuro-Bio Ltd, priority 2016, dated 2024):
Entries after “also recorded” stand apart in the source; their conditions may differ. Where a SMILES comes first, the peptide text is derived from it. [ ]: non-standard residue; d: D form. Bpa = N[C@@H](Cc1ccc(C(=O)c2ccccc2)cc1)C(=O)O; Phe(4-NH2) = Nc1ccc(C[C@H](N)C(=O)O)cc1; 2Nal = N[C@@H](Cc1ccc2ccccc2c1)C(=O)O; hArg = N=C(N)NCCCC[C@H](N)C(=O)O

Assays:
[1] = stability / degradation in rat blood; assay type: in vitro ADME; conditions: for stability in blood / degradants detected: rat blood diluted with PBS; for degradants detected: UHPLC-TOF MS
Description: (§1) Test compounds were spiked at 10 μg/ml into either PBS or blood (Male Wistar rat or Human) diluted with PBS, and a series of samples taken according to the following scheme:
(§2) Procaine, a compound known to be unstable in blood, was included as a positive control (ran with 5-fold diluted blood only). The sampling procedure was to add an aliquot to ice-cold acetonitrile, centrifuge, and store the supernatant on dry ice until analysis. Analysis by UHPLC-TOF mass spectrometry using electrospray ionisation was performed on the same day as the incubations were performed.

[2] = stability / degradation in human blood; assay type: in vitro ADME
Description: as §1, §2

[3] = test system: PC12 cells; experiment: AChE activity assay (Ellman reagent) in PC12 cells treated with T30; assay type: cell-based; conditions: combined with T30 (1 μM)
Description: AChE activity was measured using the Ellman reagent that measures the presence of thiol groups as a result of AChE activity. In the case of the G4 experiment, AChE (G4) activity was tested alone and also together with either NBP14 or Tri peptides. PC12 cells were plated the day before the experiment as for the cell viability assay. Cells were treated with T30 (1 μM) alone or combined with NBP14 or Tri peptide (0.5 μM). After treatment, supernatant (perfusate) of each treatment was collected and 25 μL from each condition were added to a new flat bottomed 96 well plate followed by the addition of 175 μl of Ellman reagent (Solution A: KH2PO4 139 mM and K2HPO4 79.66 mM, pH 7.0; solution B (substrate): Acetylthiocholine Iodide 11.5 mM; Solution C (Reagent): 5,5′-dithiobis(2-nitrobenzoic acid) 8 mM and NaHCO3 15 mM). The Ellman reagent was prepared as a mixture of the 3 solutions in a ratio 33(A):3(B):4(C). Absorbance measurements were taken for an interval of 60 minutes across experiments at 405 nm in a Vmax plate reader (Molecular devices, Wokingham, UK).
In each of the different cell techniques, the statistics analysis was performed with the average of the percentage values of 3 or more experiments. […]

[4] = test system: rat basal forebrain slices; experiment: voltage-sensitive dye imaging (VSDI) on brain slices, Example 5; assay type: cell-based
Description: Male Wistar rats (14 days old) were anaesthetised using isoflurane (˜15 ml, 100% w/w). Isoflurane was applied to the cotton bed at the bottom of an anaesthetic chamber (glass box 20×15×15 cm) where rats were then placed for approximately 45 s until complete anaesthesia was reached. The hind paw of each anaesthetised rat was pinched to check for the appropriate depth of anaesthesia. Upon confirmation of anaesthesia, rats were quickly decapitated, with the brain being quickly removed and immersed in ice cold oxygenated ‘slicing’ artificial cerebrospinal fluid (aCSF in mmol: 120 NaCl, 5 KCL, 20 NaHCO3, 2.4 CaCl2 2 MgSO4, 1.2 KH2PO4, 10 glucose, 6.7 HEPES salt and 3.3 HEPES acid; pH=7.1). Coronal slices (400 μm thick) were then taken from a block of brain containing the basal forebrain, namely the MS-dBB complex (between +9.20 and +9.48 mm Interaural and +0.48 and +0.2 mm Bregma, FIG. 4A) and the somatosensory barrel field cortex (SiBF, between +8.08 and +7.20 mm Interaural and −0.92 mm and −1.80 mm Bregma) (Paxinos and Watson, 1998) using a Vibratome (Leica VTi000S).
Slices were then transferred to a bubbler pot containing oxygenated aCSF at room temperature (recording aCSF in mmol: 124 NaCl, 5 KCL, 20 NaHCO3, 2.4 CaCl2 2 MgSO4, 1.3 KH2PO4, 10 glucose; pH=7.4) which was identical to that used in VSDI (voltage sensitive dye imaging) recording. Slices were then left for approximately 1-1.5 hours before preparing them for VSD staining.
Slices were placed in a dark, high humidity chamber filled with aCSF bubbled with 95% O2, 5% CO2. Once there, the dye solution (4% 0.2 mM styryl dye pyridinium 4-[2-[6-(dibutylamino)-2-napthalenyl]-ethenyl]-1-(3-sulfopropyl)hydroxide (Di-4-NEPPS), Invitrogen, Paisley, UK in 48% aCSF, 48% foetal bovine serum, 3.5% DMSO and 0.4% cremophore EL) (Tominaga et al., 2000) was applied to the slices for 20-25 minutes before being transferred back to a bubbler pot containing oxygenated aCSF kept at room temperature for 30 minutes.
When starting the VSDI recordings, slices were placed in the recording bath on a small piece of filter paper to allow the flow of oxygenated aCSF on the underside of the slice and in order to keep it alive. The slice was then weighed down by a home-made plastic grid that was placed on top of the slice. […] For the acquisition of VSD data, 2 dimensional images, equivalent to 88×60 pixels, were recorded using the MiCamo2 High Resolution camera (Brain Vision, Japan) with BV_Analyze imaging software. […] Light was generated using an Osram halogen xenophot 64634 HLX EFR Display/Optic lamp and was filtered to emit green (530±10 nm) light using a MHF-G150LR (Moritex Corporation) coupled to the MiCamo2 High resolution imaging system and filtered the emitted fluorescence through a >590 nm high pass filter. […]

[5] = test system: PC12 cells; experiment: Calcium fluorometry (Fluo-8, PNU282987-induced calcium increase) in PC12 cells; assay type: cell-based; conditions: in conjunction with T30, PC12 cells
Description: PC12 cells were plated in 200 μl of Dulbecco's Modified Eagle's medium (DMEM) plus 2 mM of L-glutamine medium the day before the experiment in 96 well plates. On the day of the experiment, the Fluo-8 solution (Abcam) was prepared as described by the provider by adding 20 μl of Fluo-8 in the assay buffer that contains 9 ml of Hank's Balanced Salt Solution (HBSS) and 1 ml of pluronic F127 Plus. Subsequently, 100 μl of growth medium was removed and 100 μl of Fluo-8 solution were added. Treatments with T30 in conjunction with NBP14 or Tri peptides were added and incubated for 30 minutes in the incubator and 30 minutes room temperature. After 1 h, the plate was placed in the fluorescence plate reader (Fluostar, Optima, BMG Labtech, Ortenberg, Germany). Before reading the fluorescence, PNU282987 1 μM, an alpha7 specific agonist of the nicotinic receptors, was prepared and placed in the Fluostar injector. For each well, the reading was formed by a basal fluorescence reading followed by PNU282987 injection that induced an increase of calcium via nicotinic receptors.
In each of the different cell techniques, the statistics analysis was performed with the average of the percentage values of 3 or more experiments. Comparisons between multiple treatment groups and the same control were performed by one-way analysis of variance (ANOVA) and Tukey's post-hoc tests using GraphPAD Instat (GraphPAD software, San Diego, California). Statistical significance was taken at a p value<0.05.

[6] = test system: rat basal forebrain slices; experiment: voltage-sensitive dye imaging (VSDI) on brain slices, Example 7; assay type: cell-based
Description: Brain slices were prepared as in Example 5.
Slices were placed in a dark, high humidity chamber filled with aCSF bubbling with 95% O2e5% CO2. Once there, the dye solution (4% 0.2 mM styryl dye pyridinium 4-[2-[6-(dibutylamino)-2-aphthalenyl]-ethenyl]-1-(3-sulfopropyl)hydroxide (Di-4-ANEPPS, Invitrogen, Paisley, UK) (Tominaga et al., 2000) in aCSF 48%, fetal bovine serum 48%, DMSO 3.5% and cremophore EL 0.4%) was applied to the slices for 20-25 min before being transferred to an aCSF bubbler pot (room temperature, 22 C+/−1.5 C) for 1 h to wash off excess dye and recover.
When starting VSD recordings, slices were placed in the recording bath on a small piece of filter paper to keep slice alive and was weighed down appropriately using a home-made plastic grid placed atop the slice. The perfusing bath solution was heated to 30+/−1 C by a stage heater. A concentric bipolar stimulating electrode (FHC, Maine, US) was placed in the ventral diagonal band of the basal forebrain with stimulation being set at 30 V. For acquiring of VSD data, 16-bit images were recorded with 1 ms resolution with a digital camera (Brain Vision MiCAM Ultima R3-V20 Master) with Ultima 2004/08 imaging software (Brain Vision) coupled to Spike 2 V6.0 (CED Ltd, Cambridge, UK) which was used to trigger stimulations with respect to appropriate ISI. […]

[7] = human blood diluted with PBS, 10 μg/ml, up to 60 min

| SMILES | turnover ([1]; 5-fold diluted rat blood, 10 μg/ml, up to 60 min) | turnover ([2]; 5-fold diluted human blood, 10 μg/ml, up to 60 min) | protection against T30-induced AChE activity [3] | blocking of T30-induced deviations from baseline (VSDI) ([4]; 4 μM co-perfused with T30 (2 uM)) | change in magnitude (summed fluorescence) of evoked responses, compound alone ([4]; 4 μM in perfusate, no T30) | stability in blood ([1]; 10 μg/ml, up to 60 min) | degradants detected [1] | stability in blood [2, 7] | degradants detected ([2]; human blood diluted with PBS, UHPLC-TOF MS) | protection against T30-induced calcium influx [5] | effect on T30-induced inhibition of basal forebrain activity ([6]; 2 μM Tri04 co-perfused with 2 μM T30, n=29) | effect on T30-induced inhibition of basal forebrain activity ([6]; 4 μM Tri04 co-perfused with 2 μM T30, n=20) |
| --- | --- | --- | --- | --- | --- | --- | --- | --- | --- | --- | --- | --- |
| CCN(CC)CCOC(=O)c1ccc(N)cc1 [Procaine, reference compound] | 60% | 100% |  |  |  |  |  |  |  |  |  |  |
| CC(=O)N[C@@H](Cc1ccc2ccccc2c1)C(=O)N[C@@H](Cc1ccc(N)cc1)C(=O)N[C@@H](Cc1c[nH]c2ccccc12)C(N)=O [Tri02, 4-((S)-2((S)-2-acetamido-3-(naphthalene-2-yl)propanamido)-3-(((S)-1-amino-3-(1H-indol-3-yl)-1-oxopropan-2-yl)amino)-3-oxopropyl)benzenaminium] (Ac-[2Nal]-[Phe(4-NH2)]-Trp-NH2) |  |  | protects against the toxic effects of T30 | not found to protect against T30-induced deviations from baseline; also recorded: some efficacy in blocking those T30-induced deviation | recapitulates results seen with application of 4 μM NBP14; also recorded: small alterations | some instability | a variety of degradants were detected | some instability | a variety of degradants were detected | protects against the toxic effects of T30 |  |  |
| CC(=O)N[C@@H](Cc1ccc(C(=O)c2ccccc2)cc1)C(=O)N[C@@H](CCCCNC(=N)N)C(=O)N[C@@H](Cc1ccc(N)cc1)C(N)=O [Tri04, 4-((S)-2-((S)-2-((S)-2-acetamido-3-(4-benzoylphenyl)propanamido)-6-((amino(iminio)methyl)amino)hexanamido)-3-amino-3-oxopropyl)benzenaminium] (Ac-[Bpa]-[hArg]-[Phe(4-NH2)]-NH2) |  |  |  |  |  | better stability than TRI-02 | some degradants were still detected | better stability than TRI-02 |  | protects the toxic effects of T30 by reducing calcium influx | significant effect on basal forebrain population activity; also recorded: reversal of the inhibitory effect of T30; also recorded: increase in network activity; also recorded: protective role of Tri04 over T30 | totally block the T30-induced effects; also recorded: recapitulates results previously seen with the application of 4 μM NBP14; also recorded: significant effect reversing T30 activity |
